Key:
Assay in all cases: In vitro antibacterial evaluation: minimum inhibitory concentration (MIC), broth dilution method
Type in all cases: cell-based
Staphylococcus sp. = details: for MIC Staphylococcus aureus (ATCC 29213): strain ATCC 29213; for MIC Staphylococcus aureus (GC 1131): strain GC 1131; for MIC Staphylococcus aureus (GC 3051): strain GC 3051; for MIC Staphylococcus aureus (GC 3053): strain GC 3053; for MIC Staphylococcus aureus (GC 4541): strain GC 4541; for MIC Staphylococcus aureus (GC 4542): strain GC 4542; for MIC Staphylococcus aureus (GC 4544): strain GC 4544; for MIC Staphylococcus aureus (GC 4545): strain GC 4545
Description: (§1) The minimum inhibitory concentration (MIC), the lowest concentration of the antibiotic which inhibits growth of the test organism, is determined by the broth dilution method using Muller-Hinton II […] (Baltimore Biological Laboratories) following the recommendations of the National Committee for Clinical Laboratory Standards [Methods for dilution antimicrobial susceptibility tests for bacteria that grow aerobically, approved standard M7-A2, National Committee for Clinical Laboratory Standards, Villanova, Pa].
(§2) An inoculum level of 5×10^5 CFU/mL, and a range of antibiotic concentrations (64-0.06 μg/mL) is used. […] The test organisms include a spectrum of Gram-positive bacteria comprised of Staphylococcus sp., Streptococcus sp. and Enterococcus sp. These organisms include recent clinical isolates that are resistant to methicillin, penicillin and/or vancomycin.

Enterococcus sp. = details: broth dilution, 5×10^5 CFU/mL, 18 hours at 35° C.
Description: as §1, §2

Streptococcus sp. = details: broth dilution, 5×10^5 CFU/mL, 18 hours at 35° C.
Description: as §1, §2

Escherichia coli = details: 5×10^5 CFU/mL, 18 hours at 35° C.
Description: as §1, §2

[1] = broth dilution, 5×10^5 CFU/mL, 18 hours at 35° C.
[2] = broth dilution, 18 hours at 35° C.
[3] = strain GC 4543, broth dilution, 18 hours at 35° C.
[4] = strain GC 4546, broth dilution, 18 hours at 35° C.
[5] = strain GC 4547, broth dilution, 18 hours at 35° C.
[6] = strain GC 4548, broth dilution, 18 hours at 35° C.
[7] = strain GC 4549, broth dilution, 18 hours at 35° C.
[8] = strain GC 4551, broth dilution, 18 hours at 35° C.
[9] = strain GC 6257, broth dilution, 18 hours at 35° C.

CC(c1ccccc1)C1NC(=O)CNC(=O)C(CO)NC(=O)C(C(O)C2CNC(=N)N2C2OC(CO)C(O)C(O)C2O)NC(=O)C(C(O)C2CNC(=N)N2)NC(=O)C(Cc2ccc(OC3OC(CO)C(OC4OC5COC(c6cccs6)OC5C(O)C4O)C(O)C3O)cc2)NC1=O (stereo not drawn) [Example 132, Cyclo[glycyl-β-methylphenylalanyl-O-[4-O-[4,6-O-(2-thienylmethylene)hexopyranosyl]-hexopyranosyl]tyrosyl-3-(2-iminoimidazolidin-4-yl)seryl-3-(3-hexopyranosyl-2-iminoimidazolidin-4-yl)serylseryl]]
>64 µg/mL: MIC Escherichia coli (ATCC 25922) (Escherichia coli)
2 µg/mL: MIC Coagulase Negative Staphylococcus (GC 4547) (Staphylococcus sp.; [1]) | MIC Coagulase Negative Staphylococcus (GC 4551) (Staphylococcus sp.; [1]) | MIC Staphylococcus aureus-SMITH (GC 4543) (Staphylococcus sp.; [1]) | MIC Staphylococcus aureus (GC 1131) (Staphylococcus sp.) | MIC Staphylococcus aureus (GC 1131) (Staphylococcus sp.; [2]) | MIC Staphylococcus aureus (GC 3051) (Staphylococcus sp.) | MIC Staphylococcus aureus (GC 3051) (Staphylococcus sp.; [2]) | MIC Staphylococcus aureus (GC 4541) (Staphylococcus sp.) | MIC Staphylococcus aureus (GC 4541) (Staphylococcus sp.; [2]) | MIC Staphylococcus aureus (GC 4542) (Staphylococcus sp.) | MIC Staphylococcus aureus (GC 4542) (Staphylococcus sp.; [2]) | MIC Staphylococcus aureus-SMITH (GC 4543) (Staphylococcus sp.; [3]) | MIC Staphylococcus aureus (GC 4545) (Staphylococcus sp.) | MIC Staphylococcus aureus (GC 4545) (Staphylococcus sp.; [2]) | MIC Coagulase Negative Staphylococcus (GC 4547) (Staphylococcus sp.; [5]) | MIC Coagulase Negative Staphylococcus (GC 4551) (Staphylococcus sp.; [8])
1 µg/mL: MIC Coagulase Negative Staphylococcus (GC 4548) (Staphylococcus sp.; [1]) | MIC Coagulase Negative Staphylococcus (GC 4549) (Staphylococcus sp.; [1]) | MIC Coagulase Negative Staphylococcus (GC 6257) (Staphylococcus sp.; [1]) | MIC Staphylococcus haemolyticus (GC 4546) (Staphylococcus sp.; [1]) | MIC Staphylococcus haemolyticus (GC 4546) (Staphylococcus sp.; [4]) | MIC Coagulase Negative Staphylococcus (GC 4548) (Staphylococcus sp.; [6]) | MIC Coagulase Negative Staphylococcus (GC 4549) (Staphylococcus sp.; [7]) | MIC Coagulase Negative Staphylococcus (GC 6257) (Staphylococcus sp.; [9]) | MIC Escherichia coli (GC 4560) (Escherichia coli)
8 µg/mL: MIC Enterococccus faecalis (ATCC 29212) (Enterococcus sp.) | MIC Enterococccus faecalis (GC 2691) (Enterococcus sp.) | MIC Enterococccus faecalis (GC 4552) (Enterococcus sp.) | MIC Enterococccus faecalis (GC 4554) (Enterococcus sp.) | MIC Enterococccus faecalis (GC 6189) (Enterococcus sp.) | MIC Enterococccus faecium (GC 2243) (Enterococcus sp.) | MIC Enterococccus faecium (GC 4556) (Enterococcus sp.) | MIC Enterococcus faecalis (GC 2242) (Enterococcus sp.)
0.5 µg/mL: MIC Streptococcus agalactiae (GC 4564) (Streptococcus sp.) | MIC Streptococcus pyogenes (GC 4563) (Streptococcus sp.)
16 µg/mL: MIC Enterococccus avium (GC 4558) (Enterococcus sp.) | MIC Enterococccus faecalis (GC 3059) (Enterococcus sp.) | MIC Enterococccus faecalis (GC 4553) (Enterococcus sp.)
0.25 µg/mL: MIC Streptococcus pneumoniae (GC 4565) (Streptococcus sp.) | MIC Streptococcus pneumonine (ATCC 6301) (Streptococcus sp.)
32 µg/mL: MIC Escherichia coli (GC 4559) (Escherichia coli)
4 µg/mL: MIC Staphylococcus aureus (ATCC 29213) (Staphylococcus sp.) | MIC Staphylococcus aureus (ATCC 29213) (Staphylococcus sp.; [2]) | MIC Staphylococcus aureus (GC 3053) (Staphylococcus sp.) | MIC Staphylococcus aureus (GC 3053) (Staphylococcus sp.; [2]) | MIC Staphylococcus aureus (GC 4544) (Staphylococcus sp.) | MIC Staphylococcus aureus (GC 4544) (Staphylococcus sp.; [2]) | MIC Enterococccus faecium (GC 4557) (Enterococcus sp.)
0.12 µg/mL: MIC Streptococcus pneumoniae (GC 1894) (Streptococcus sp.)

CC(c1ccccc1)C1NC(=O)CNC(=O)C(CO)NC(=O)C(C(O)C2CNC(=N)N2C2OC(CO)C(O)C(O)C2O)NC(=O)C(C(O)C2CNC(=N)N2)NC(=O)C(Cc2ccc(OC3OC(CO)C(OC4OC5COC(c6ccsc6)OC5C(O)C4O)C(O)C3O)cc2)NC1=O (stereo not drawn) [Example 133, Cyclo[glycyl-β-methylphenylalanyl-O-[4-O-[4,6-O-(3-thienylmethylene)hexopyranosyl]-hexopyranosyl]tyrosyl-3-(2-iminoimidazolidin-4-yl)seryl-3-(3-hexopyranosyl-2-iminoimidazolidin-4-yl)serylseryl]]
4 µg/mL: MIC Staphylococcus aureus (GC 3053) (Staphylococcus sp.) | MIC Staphylococcus aureus (GC 3053) (Staphylococcus sp.; [2]) | MIC Enterococccus faecalis (GC 6189) (Enterococcus sp.) | MIC Enterococcus faecalis (GC 2242) (Enterococcus sp.) | MIC Streptococcus pneumoniae (GC 4565) (Streptococcus sp.)
8 µg/mL: MIC Enterococccus avium (GC 4558) (Enterococcus sp.) | MIC Enterococccus faecalis (ATCC 29212) (Enterococcus sp.) | MIC Enterococccus faecalis (GC 2691) (Enterococcus sp.) | MIC Enterococccus faecalis (GC 3059) (Enterococcus sp.) | MIC Enterococccus faecalis (GC 4552) (Enterococcus sp.) | MIC Enterococccus faecalis (GC 4553) (Enterococcus sp.) | MIC Enterococccus faecalis (GC 4554) (Enterococcus sp.) | MIC Enterococccus faecium (GC 2243) (Enterococcus sp.) | MIC Enterococccus faecium (GC 4556) (Enterococcus sp.)
2 µg/mL: MIC Staphylococcus aureus (GC 1131) (Staphylococcus sp.) | MIC Staphylococcus aureus (GC 1131) (Staphylococcus sp.; [2]) | MIC Staphylococcus aureus (GC 4542) (Staphylococcus sp.) | MIC Staphylococcus aureus (GC 4542) (Staphylococcus sp.; [2]) | MIC Staphylococcus aureus (GC 4544) (Staphylococcus sp.) | MIC Staphylococcus aureus (GC 4544) (Staphylococcus sp.; [2]) | MIC Enterococccus faecium (GC 4557) (Enterococcus sp.)
64 µg/mL: MIC Escherichia coli (ATCC 25922) (Escherichia coli)
32 µg/mL: MIC Escherichia coli (GC 4559) (Escherichia coli)
1 µg/mL: MIC Coagulase Negative Staphylococcus (GC 4547) (Staphylococcus sp.; [1]) | MIC Coagulase Negative Staphylococcus (GC 4549) (Staphylococcus sp.; [1]) | MIC Coagulase Negative Staphylococcus (GC 4551) (Staphylococcus sp.; [1]) | MIC Coagulase Negative Staphylococcus (GC 6257) (Staphylococcus sp.; [1]) | MIC Staphylococcus aureus-SMITH (GC 4543) (Staphylococcus sp.; [1]) | MIC Staphylococcus haemolyticus (GC 4546) (Staphylococcus sp.; [1]) | MIC Staphylococcus aureus (ATCC 29213) (Staphylococcus sp.) | MIC Staphylococcus aureus (ATCC 29213) (Staphylococcus sp.; [2]) | MIC Staphylococcus aureus (GC 3051) (Staphylococcus sp.) | MIC Staphylococcus aureus (GC 3051) (Staphylococcus sp.; [2]) | MIC Staphylococcus aureus (GC 4541) (Staphylococcus sp.) | MIC Staphylococcus aureus (GC 4541) (Staphylococcus sp.; [2]) | MIC Staphylococcus aureus-SMITH (GC 4543) (Staphylococcus sp.; [3]) | MIC Staphylococcus aureus (GC 4545) (Staphylococcus sp.) | MIC Staphylococcus aureus (GC 4545) (Staphylococcus sp.; [2]) | MIC Staphylococcus haemolyticus (GC 4546) (Staphylococcus sp.; [4]) | MIC Coagulase Negative Staphylococcus (GC 4547) (Staphylococcus sp.; [5]) | MIC Coagulase Negative Staphylococcus (GC 4549) (Staphylococcus sp.; [7]) | MIC Coagulase Negative Staphylococcus (GC 4551) (Staphylococcus sp.; [8]) | MIC Coagulase Negative Staphylococcus (GC 6257) (Staphylococcus sp.; [9])
<0.5 µg/mL: MIC Coagulase Negative Staphylococcus (GC 4548) (Staphylococcus sp.; [1]) | MIC Coagulase Negative Staphylococcus (GC 4548) (Staphylococcus sp.; [6]) | MIC Streptococcus agalactiae (GC 4564) (Streptococcus sp.) | MIC Streptococcus pneumoniae (GC 1894) (Streptococcus sp.) | MIC Streptococcus pneumonine (ATCC 6301) (Streptococcus sp.) | MIC Streptococcus pyogenes (GC 4563) (Streptococcus sp.) | MIC Escherichia coli (GC 4560) (Escherichia coli)

Source: patent US8247211B2, “Glycopeptide antibiotics” (American Cyanamid Company, priority 2001, dated 2012)
